The assay deals with NCIH929.1 cells. The assay is described as follows: Cell viability assay (CellTiter-Glo 2.0, ATP quantification). The note with it: NCIH929.1 cell viability, CellTiter-Glo 2.0, 96 hr incubation, top concentration 1 μM. Type of assay: cell-based. In short, it runs like this: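 Read-out is CellTiter-Glo 2.0 luminescence (ATP), after 96 h compound exposure at 37 °C, with a day-0 plate giving the CT0 baseline. Duplicate 10-point half-log titration from 1 μM applied to 750 cells/well in RPMI, 10% FBS, 0.05 mM 2-mercaptoethanol.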

Some results are limits rather than exact numbers.

As usually defined, the GI50 is the concentration at which growth is held to half of that of the control. With `CC(C)(C)n1cc(CNc2cccc3c2C(=O)N(C2CCC(=O)NC2=O)C3=O)cn1` (stereo not drawn) [Compound 144, 4-(((1-(tert-butyl)-1H-pyrazol-4-yl)methyl)amino)-2-(2,6-dioxopiperidin-3-yl)isoindoline-1,3-dione], the GI50 is less than 100 nM.

`O=C1CCC(N2C(=O)c3cccc(NCc4cnn(C5CCN(C(=O)C(F)F)CC5)c4)c3C2=O)C(=O)N1` (stereo not drawn) [Compound 10, 4-(((1-(1-(2,2-difluoroacetyl)piperidin-4-yl)-1H-pyrazol-4-yl)methyl)amino)-2-(2,6-dioxopiperidin-3-yl)isoindoline-1,3-dione] gave a GI50 of less than 100 nM.

`O=C1CCC(N2C(=O)c3cccc(NCc4cnn(C5CCN(C(=O)Cc6coc(-c7ccccc7)n6)CC5)c4)c3C2=O)C(=O)N1` (stereo not drawn) [Compound 116, 2-(2,6-dioxopiperidin-3-yl)-4-(((1-(1-(2-(2-phenyloxazol-4-yl)acetyl)piperidin-4-yl)-1H-pyrazol-4-yl)methyl)amino)isoindoline-1,3-dione] displayed a GI50 of less than 100 nM.

The molecule `O=C1CCC(N2C(=O)c3cccc(NCc4cnn(C5CCN(C(=O)C6CCCCC6)CC5)c4)c3C2=O)C(=O)N1` (stereo not drawn) [Compound 22, 4-(((1-(1-(cyclohexanecarbonyl)piperidin-4-yl)-1H-pyrazol-4-yl)methyl)amino)-2-(2,6-dioxopiperidin-3-yl)isoindoline-1,3-dione] registered a GI50 of less than 100 nM.

In the case of `O=C1CCC(N2C(=O)c3cccc(NCc4cnn(C5CCN(C(=O)C67CCC(C6)C7)CC5)c4)c3C2=O)C(=O)N1` (stereo not drawn) [Compound 97, 4-(((1-(1-(bicyclo[2.1.1]hexane-1-carbonyl)piperidin-4-yl)-1H-pyrazol-4-yl)methyl)amino)-2-(2,6-dioxopiperidin-3-yl)isoindoline-1,3-dione], the GI50 was less than 100 nM.

`CC(C)(C)OC(=O)N1CCC(F)(C(=O)N2CCC(n3cc(CNc4cccc5c4C(=O)N(C4CCC(=O)NC4=O)C5=O)cn3)CC2)CC1` (stereo not drawn) [Compound 102, tert-butyl 4-(4-(4-(((2-(2,6-dioxopiperidin-3-yl)-1,3-dioxoisoindolin-4-yl)amino)methyl)-1H-pyrazol-1-yl)piperidine-1-carbonyl)-4-fluoropiperidine-1-carboxylate] gave a 50% growth inhibitory concentration (GI50) of less than 100 nM.

`O=C1CCC(N2C(=O)c3cccc(NCc4cnn(C5CN(c6ccccc6)C5)c4)c3C2=O)C(=O)N1` (stereo not drawn) [Compound 181, 2-(2,6-Dioxo-piperidin-3-yl)-4-{[1-(1-phenyl-azetidin-3-yl)-1H-pyrazol-4-ylmethyl]-amino}-isoindole-1,3-Dione] returned a GI50 of less than 100 nM.

`O=C1CCC(N2C(=O)c3cccc(NCc4cnn(C5CCN(CC6CCCC6)CC5)c4)c3C2=O)C(=O)N1` (stereo not drawn) [Compound 128, 4-(((1-(1-(cyclopentylmethyl)piperidin-4-yl)-1H-pyrazol-4 yl)methyl)amino)-2-(2,6-dioxopiperidin-3-yl)isoindoline-1,3-dione] came in with a GI50 of less than 100 nM.

For `O=C1CCC(N2C(=O)c3cccc(NCc4cnn(C5CCN(C(=O)C6CCN(c7ccccn7)CC6)CC5)c4)c3C2=O)C(=O)N1` (stereo not drawn) [Compound 100, 2-(2,6-dioxopiperidin-3-yl)-4-(((1-(1-(1-(pyridin-2-yl)piperidine-4-carbonyl)piperidin-4-yl)-1H-pyrazol-4-yl)methyl)amino)isoindoline-1,3-dione], the GI50 was less than 1 nM.

`O=C1CCC(N2C(=O)c3cccc(NCc4cnn(C5CCN(CC6(C(F)(F)F)CCC6)CC5)c4)c3C2=O)C(=O)N1` (stereo not drawn) [Compound 140, 2-(2,6-dioxopiperidin-3-yl)-4-(((1-(1-((1-(trifluoromethyl)cyclobutyl)methyl)piperidin-4-yl)-1H-pyrazol-4-yl)methyl)amino)isoindoline-1,3-dione] yielded a GI50 of less than 100 nM.

With `CCC1(C(=O)N2CCC(n3cc(CNc4cccc5c4C(=O)N(C4CCC(=O)NC4=O)C5=O)cn3)CC2)CCC1` (stereo not drawn) [Compound 86, 2-(2,6-dioxopiperidin-3-yl)-4-(((1-(1-(1-ethylcyclobutane-1-carbonyl)piperidin-4-yl)-1H-pyrazol-4-yl)methyl)amino)isoindoline-1,3-dione], the GI50 is less than 100 nM.

The molecule `O=C1CCC(N2C(=O)c3cccc(NCc4cnn(C5CCN(C(=O)Cc6ccc(F)cc6)CC5)c4)c3C2=O)C(=O)N1` (stereo not drawn) [Compound 25, 2-(2,6-dioxopiperidin-3-yl)-4-(((1-(1-(2-(4-fluorophenyl)acetyl)piperidin-4-yl)-1H-pyrazol-4-yl)methyl)amino)isoindoline-1,3-dione] registered a GI50 of less than 100 nM.

Consider `CN(C)CCC(Nc1cccc2c1C(=O)N(C1CCC(=O)NC1=O)C2=O)c1cnn(C2CCN(C(=O)OC(C)(C)C)CC2)c1` (stereo not drawn) [Compound 187, tert-Butyl 4-(4-(3-(dimethylamino)-1-((2-(2,6-dioxopiperidin-3-yl)-1,3-dioxoisoindolin-4-yl)amino)propyl)-1H-pyrazol-1-yl)piperidine-1-carboxylate], for which the GI50 was greater than 100 nM.

In turn, `CC1(C(=O)N2CCC(n3ncc4c3CCC4Nc3cccc4c3C(=O)N(C3CCC(=O)NC3=O)C4=O)CC2)CCC1` (stereo not drawn) [Compound 207, 2-(2,6-Dioxo-piperidin-3-yl)-4-{1-[1-(1-methyl-cyclobutanecarbonyl)-piperidin-4-yl]-1,4,5,6-tetrahydro-cyclopentapyrazol-4-ylamino}-isoindole-1,3-dione] had a GI50 of less than 100 nM.

In the case of `CC(C)(C)OC(=O)N1CCC(n2cc(CNc3cccc4c3C(=O)N(C3CCC(=O)NC3=O)C4=O)cn2)CC1` (stereo not drawn) [Compound 66, tert-butyl 4-(4-(((2-(2,6-dioxopiperidin-3-yl)-1,3-dioxoisoindolin-4-yl)amino)methyl)-1H-pyrazol-1-yl)piperidine-1-carboxylate], the GI50 is less than 100 nM.

Take `CC(C)CCC(=O)N1CCC(n2cc(CNc3cccc4c3C(=O)N(C3CCC(=O)NC3=O)C4=O)cn2)CC1` (stereo not drawn) [Compound 23, 2-(2,6-dioxopiperidin-3-yl)-4-(((1-(1-(4-methylpentanoyl)piperidin-4-yl)-1H-pyrazol-4-yl)methyl)amino)isoindoline-1,3-dione]: the GI50 was less than 1 nM.

Regarding `O=C1CCC(N2C(=O)c3cccc(NCc4cnn(C5CCN(CC6CCC6)CC5)c4)c3C2=O)C(=O)N1` (stereo not drawn) [Compound 131, 4-(((1-(1-(cyclobutylmethyl)piperidin-4-yl)-1H-pyrazol-4-yl)methyl)amino)-2-(2,6-dioxopiperidin-3-yl)isoindoline-1,3-dione], the concentration for 50% growth inhibition (GI50) is less than 100 nM.

For `CC1(C(=O)N2CCC(n3cc(CNc4cccc5c4C(=O)N(C4CCC(=O)NC4=O)C5=O)cn3)CC2)CC1(Cl)Cl` (stereo in doubt) [Compound 183, 4-(((1-(1-((S)-2,2-Dichloro-1-methylcyclopropane-1-carbonyl)piperidin-4-yl)-1H-pyrazol-4-yl)methyl)amino)-2-(2,6-dioxopiperidin-3-yl)isoindoline-1,3-dione], the GI50 is less than 1 nM.

As for `C#CC1(C(=O)N2CCC(n3cc(CNc4cccc5c4C(=O)N(C4CCC(=O)NC4=O)C5=O)cn3)CC2)CCC1` (stereo not drawn) [Compound 93, 2-(2,6-dioxopiperidin-3-yl)-4-(((1-(1-(1-ethynylcyclobutane-1-carbonyl)piperidin-4-yl)-1H-pyrazol-4-yl)methyl)amino)isoindoline-1,3-dione], the GI50 is less than 1 nM.

The molecule `O=C1CCC(N2C(=O)c3cccc(NCc4cnn(C5CC5)c4)c3C2=O)C(=O)N1` (stereo not drawn) [Compound 163, 4-[(1-Cyclopropyl-1H-pyrazol-4-ylmethyl)-amino]-2-(2,6-dioxo-piperidin-3-yl)-isoindole-1,3-dione] came in with a GI50 of less than 100 nM.

As for `CC(C)OCC(=O)N1CCC(n2cc(CNc3cccc4c3C(=O)N(C3CCC(=O)NC3=O)C4=O)cn2)CC1` (stereo not drawn) [Compound 41, 2-(2,6-dioxopiperidin-3-yl)-4-(((1-(1-(2-isopropoxyacetyl)piperidin-4-yl)-1H-pyrazol-4-yl)methyl)amino)-isoindoline-1,3-dione], the GI50 is less than 100 nM.

`CC1(C(=O)N2CCC(n3ncc(CNc4cccc5c4C(=O)N(C4CCC(=O)NC4=O)C5=O)c3C#N)CC2)CCC1` (stereo not drawn) [Compound 194, 4-(((2-(2,6-Dioxopiperidin-3-yl)-1,3-dioxoisoindolin-4-yl)amino)methyl)-1-(1-(1-methylcyclobutane-1-carbonyl)piperidin-4-yl)-1H-pyrazole-5-carbonitrile] yielded a GI50 of less than 100 nM.

In turn, `CCc1ccc2c(CC(=O)N3CCC(n4cc(CNc5cccc6c5C(=O)N(C5CCC(=O)NC5=O)C6=O)cn4)CC3)coc2c1` (stereo not drawn) [Compound 114, 2-(2,6-dioxoopiperidin-3-yl)-4-(((1-(1-(2-(6-ethylbenzofuran-3-yl)acetyl)piperidin-4-yl)-1H-pyrazol-4-yl)methyl)amino)isoindoline-1,3-dione] showed a GI50 of less than 100 nM.

In the case of `COC1(C(=O)N2CCC(n3cc(CNc4cccc5c4C(=O)N(C4CCC(=O)NC4=O)C5=O)cn3)CC2)CCC1` (stereo not drawn) [Compound 82, 2-(2,6-dioxopiperidin-3-yl)-4-(((1-(1-(1-methoxycyclobutane-1-carbonyl)piperidin-4-yl)-1H-pyrazol-4-yl)methyl)amino)isoindoline-1,3-dione], the GI50 was less than 100 nM.

In the case of `O=C1CCC(N2C(=O)c3cccc(NCc4cnn(C5CCN(C(=O)C6(C7CC7)CCC6)CC5)c4)c3C2=O)C(=O)N1` (stereo not drawn) [Compound 94, 4-(((1-(1-(1-cyclopropylcyclobutane-1-carbonyl)piperidin-4-yl)-1H-pyrazol-4-yl)methyl)amino)-2-(2,6-dioxopiperidin-3-yl)isoindoline-1,3-dione], the GI50 is less than 1 nM.

Regarding `O=C1CCC(N2C(=O)c3cccc(NCc4cnn(C5CCN(C(=O)C6(Cc7ccc(F)cc7)CCC6)CC5)c4)c3C2=O)C(=O)N1` (stereo not drawn) [Compound 96, 2-(2,6-dioxopiperidin-3-yl)-4-(((1-(1-(1-(4-fluorobenzyl)cyclobutane-1-carbonyl)piperidin-4-yl)-1H-pyrazol-4-yl)methyl)amino)isoindoline-1,3-dione], the GI50 is less than 1 nM.

`CC1(C(=O)N2CCC(n3cc(CNc4cccc5c4C(=O)N(C4CCC(=O)NC4=O)C5=O)cn3)CC2)CCOCC1` (stereo not drawn) [Compound 64, 2-(2,6-dioxopiperidin-3-yl)-4-(((1-(1-(4-methyltetrahydro-2H-pyran-4-carbonyl)piperidin-4-yl)-1H-pyrazol-4-yl)methyl)amino)isoindoline-1,3-dione]: the GI50 was less than 100 nM.

Values taken from US11753397B2, “Cereblon binders for the degradation of ikaros” (C4 Therapeutics, Inc., priority 2018, dated 2023).
